Experimental data as given in US11066443B2 (Hoffmann-La Roche Inc., priority 2017, dated 2021).

system: P. aeruginosa NCTC11454; assay: Antimicrobial susceptibility testing: 50% growth inhibitory concentration (IC50) determination; assay type: cell-based; conditions: Pseudomonas aeruginosa, Iso-Sensitest broth, OD 600 nm every 20 minutes over 16h, growth inhibition during logarithmic growth
Procedure: The in vitro antimicrobial activity of the compounds was alternatively determined according to the following procedure: The assay used a 10-points Iso-Sensitest broth medium to measure quantitatively the in vitro activity of the compounds against P. aeruginosa NCTC11454. Stock compounds in DMSO were serially twofold diluted (e.g. range from 50 to 0.097 μM final concentration) in 384 wells microtiter plates and inoculated with 49 μl the bacterial suspension in Iso-Sensitest medium to have a final cell concentration of ˜5×10^(5) CFU/ml in a final volume/well of 50 ul/well. Microtiter plates were incubated at 35±2° C. Bacterial cell growth was determined with the measurement of optical density at λ=600 nm each 20 minutes over a time course of 16h. Growth inhibition was calculated during the logarithmic growth of the bacterial cells with determination of the concentration inhibiting 50% (IC50) and 90% (IC90) of the growth. Table 2 provides the 50% growth inhibitory concentrations (IC50) in micromoles per liter of the compounds of present invention obtained against P. aeruginosa NCTC11454.

Compound | IC50 [µM]
CN1C(=O)[C@H](CCCCN)NC(=O)[C@H](CCCN)NCc2ccccc2Sc2c(Cl)cc(-c3cccnc3)cc2CNC(=O)[C@@H]1Cc1c[nH]c2ccccc12 [Example 34, (12S,15S,18S)-15-(4-Amino-butyl)-18-(3-amino-propyl)-4-chloro-12-(1H-indol-3-ylmethyl)-13-methyl-6-pyridin-3-yl-2-thia-10,13,16,19-tetraaza-tricyclo[19.4.0.0*3,8*]pentacosa-1(25),3,5,7,21,23-hexaene-11,14,17-trione] | 27.8
CN1C(=O)[C@H](CCCCN)NC(=O)[C@H](CCCN)NCc2cccnc2Sc2c(Cl)cc(-c3ccccc3)cc2CNC(=O)[C@@H]1Cc1c[nH]c2ccccc12 [Example 35, 11-(3-amino-propyl)-25-chloro-17-(1H-indol-3-ylmethyl)-16-methyl-23-phenyl-2-thia-4,10,13,16,19-pentaaza-tricyclo[9.4.0.0*3,8*]pentacsa-(25),3(8),4,6,21,23-hexaene-12,15,18-trione] | 8.1
CN1C(=O)[C@H](CCCCN)NC(=O)[C@H](CCCN)NCc2ccccc2Sc2c(Cl)cc(Br)cc2CNC(=O)[C@@H]1Cc1c[nH]c2ccccc12 [Example 36, (12S,15S,18S)-15-(4-Amino-butyl)-18-(3-amino-propyl)-6-bromo-4-chloro-12-(1H-indol-3-ylmethyl)-13-methyl-2-thia-10,13,16,19-tetraaza-tricyclo[19.4.0.0*3,8*]pentacosa-1(25),3,5,7,21,23-hexaene-11,14,17-trione] | 12.5
CN1C(=O)[C@H](CCCCN)NC(=O)[C@H](CCC(N)=O)NCc2ccccc2Sc2c(cc(-c3ccccc3)cc2C(F)(F)F)CNC(=O)[C@@H]1Cc1c[nH]c2ccccc12 [Example 38, 3-[(11S,14S,17S)-14-(4-Amino-butyl)-17-(1H-indol-3-ylmethyl)-16-methyl-12,15,18-trioxo-23-phenyl-25-trifluoromethyl-2-thia-10,13,16,19-tetraaza-tricyclo[19.4.0.0*3,8*]pentacosa-1(25),3,5,7,21,23-hexaen-11-yl]-propionamide] | 14.5
CN1C(=O)[C@H](CCC(N)=O)NC(=O)[C@H](CCCN)NCc2ccccc2Sc2c(cc(-c3ccccc3)cc2C(F)(F)F)CNC(=O)[C@@H]1Cc1c[nH]c2ccccc12 [Example 39, 3-[(11S,14S,17S)-11-(3-Amino-propyl)-17-(1H-indol-3-ylmethyl)-16-methyl-12,15,18-trioxo-23-phenyl-25-trifluoromethyl-2-thia-10,13,16,19-tetraaza-tricyclo[19.4.0.0*3,8*]pentacosa-1(25),3,5,7,21,23-hexaen-14-yl]-propionamide] | 23.5
CN1C(=O)[C@H](CCCCN)NC(=O)[C@H](CCCN)NCc2cccnc2Sc2c(Cl)cc(-c3ccnc(Cl)c3)cc2CNC(=O)[C@@H]1Cc1c[nH]c2ccccc12 [Example 40, (11S,14S,17S)-14-(4-Amino-butyl)-11-(3-amino-propyl)-25-chloro-23-(2-chloro-pyridin-4-yl)-17-(1H-indol-3-ylmethyl)-16-methyl-2-thia-4,10,13,16,19-pentaaza-tricyclo[19.4.0.0*3,8*]pentacosa-1(21),3,5,7,22,24-hexaene-12,15,18-trione] | 25.1
CN1C(=O)[C@H](CCCCN)NC(=O)[C@H](CCCN)NCc2ccccc2Sc2c(ccc(Br)c2Cl)CNC(=O)[C@@H]1Cc1c[nH]c2ccccc12 [Example 41, (12S,15S,18S)-15-(4-Amino-butyl)-18-(3-amino-propyl)-5-bromo-4-chloro-12-(1H-indol-3-ylmethyl)-13-methyl-2-thia-10,13,16,19-tetraaza-tricyclo[19.4.0.0*3,8*]pentacosa-1(25),3,5,7,21,23-hexaene-11,14,17-trione] | 6.5
CN1C(=O)[C@H](CCCCN)NC(=O)[C@H](CCCN)NCc2ccccc2Sc2c(ccc(-c3ccccc3)c2Cl)CNC(=O)[C@@H]1Cc1c[nH]c2ccccc12 [Example 42, (12S,15S,18S)-15-(4-Amino-butyl)-18-(3-amino-propyl)-4-chloro-12-(1H-indol-3-ylmethyl)-13-methyl-5-phenyl-2-thia-10,13,16,19-tetraaza-tricyclo[19.4.0.0*3,8*]pentacosa-1(25),3,5,7,21,23-hexaene-11,14,17-trione] | 3.47
CN1C(=O)[C@H](CCCCN)NC(=O)[C@H](CCCN)NCc2ccccc2Sc2ncc(Cl)cc2CNC(=O)[C@@H]1Cc1c[nH]c2ccccc12 [Example 43] | 22.9
Cc1[nH]c2ccccc2c1C[C@H]1C(=O)NCc2cc(-c3ccnc(Cl)c3)cc(Cl)c2Sc2ncccc2CN[C@@H](CCCN)C(=O)N[C@@H](CCCCN)C(=O)N1C [Example 44, (11S,14S,17S)-14-(4-Amino-butyl)-11-(3-amino-propyl)-25-chloro-23-(2-chloro-pyridin-4-yl)-16-methyl-17-(2-methyl-1H-indol-3-ylmethyl)-2-thia-4,10,13,16,19-pentaaza-tricyclo[19.4.0.0*3,8*]pentacosa-1(25),3(8),4,6,21,23-hexaene-12,15,18-trione] | 27
CN1C(=O)[C@H](CCCCN)NC(=O)[C@H](CCCN)NCc2cccnc2Sc2c(Cl)cc(C#CCOCc3ccccc3)cc2CNC(=O)[C@@H]1Cc1c[nH]c2ccccc12 [Example 45, (11S,14S,17S)-14-(4-Amino-butyl)-11-(3-amino-propyl)-23-(3-benzyloxy-prop-1-ynyl)-25-chloro-17-(1H-indol-3-ylmethyl)-16-methyl-2-thia-4,10,13,16,19-pentaaza-tricyclo[19.4.0.0*3,8*]pentacosa-1(25),3(8),4,6,21,23-hexaene-12,15,18-trione] | 6.07
CN1C(=O)[C@H](CCCCN)NC(=O)[C@H](CCCN)NCc2ccccc2Sc2nc(N3CCOCC3)ccc2CNC(=O)[C@@H]1Cc1c[nH]c2ccccc12 [Example 46] | 20.3
Cc1[nH]c2ccccc2c1C[C@H]1C(=O)NCc2c(-c3ccncc3)ccc(Cl)c2Sc2ncccc2CN[C@@H](CCCN)C(=O)N[C@@H](CCCCN)C(=O)N1C [Example 47, (11S,14S,17S)-14-(4-Amino-butyl)-11-(3-amino-propyl)-25-chloro-16-methyl-17-(2-methyl-1H-indol-3-ylmethyl)-22-pyridin-4-yl-2-thia-4,10,13,16,19-pentaaza-tricyclo[19.4.0.0*3,8*]pentacosa-1(25),3(8),4,6,21,23-hexaene-12,15,18-trione] | 2.75
CN1C(=O)[C@H](CCCCN)NC(=O)[C@H](CCCN)NCc2cc(Br)ccc2Sc2c(Cl)cccc2CNC(=O)[C@@H]1Cc1c[nH]c2ccccc12 [Example 48, (12S,15S,18S)-15-(4-Amino-butyl)-18-(3-amino-propyl)-23-bromo-4-chloro-12-(1H-indol-3-ylmethyl)-13-methyl-2-thia-10,13,16,19-tetraaza-tricyclo[19.4.0.0*3,8*]pentacosa-1(25),3,5,7,21,23-hexaene-11,14,17-trione] | 14.2
CN1C(=O)[C@H](CCCCN)NC(=O)[C@H](CCCN)NCc2cc(-c3ccccc3)ccc2Sc2c(Cl)cccc2CNC(=O)[C@@H]1Cc1c[nH]c2ccccc12 [Example 49, (12S,15S,18S)-15-(4-Amino-butyl)-18-(3-amino-propyl)-4-chloro-12-(1H-indol-3-ylmethyl)-13-methyl-23-phenyl-2-thia-10,13,16,19-tetraaza-tricyclo[19.4.0.0*3,8*]pentacosa-1(25),3,5,7,21,23-hexaene-11,14,17-trione] | 10.8
CN1C(=O)[C@H](CCCCN)NC(=O)[C@H](CCCN)NCc2cc(-c3ccc(CN)cc3)ccc2Sc2c(Cl)cccc2CNC(=O)[C@@H]1Cc1c[nH]c2ccccc12 [Example 50, (12S,15S,18S)-15-(4-Amino-butyl)-23-(4-aminomethyl-phenyl)-18-(3-amino-propyl)-4-chloro-12-(1H-indol-3-ylmethyl)-13-methyl-2-thia-10,13,16,19-tetraaza-tricyclo[19.4.0.0*3,8*]pentacosa-1(25),3,5,7,21,23-hexaene-11,14,17-trione] | 8.47
CN1C(=O)[C@H](CCCCN)NC(=O)[C@H](CCCN)NCc2ccc(Br)cc2Sc2c(Cl)cccc2CNC(=O)[C@@H]1Cc1c[nH]c2ccccc12 [Example 51, (12S,15S,18S)-15-(4-Amino-butyl)-18-(3-amino-propyl)-24-bromo-4-chloro-12-(1H-indol-3-ylmethyl)-13-methyl-2-thia-10,13,16,19-tetraaza-tricyclo[19.4.0.0*3,8*]pentacosa-1(25),3,5,7,21,23-hexaene-11,14,17-trione] | 12.3
CN1C(=O)[C@H](CCCCN)NC(=O)[C@H](CCCN)NCc2ccc(-c3ccccc3)cc2Sc2c(Cl)cccc2CNC(=O)[C@@H]1Cc1c[nH]c2ccccc12 [Example 52, (12S,15S,18S)-15-(4-Amino-butyl)-18-(3-amino-propyl)-4-chloro-12-(1H-indol-3-ylmethyl)-13-methyl-24-phenyl-2-thia-10,13,16,19-tetraaza-tricyclo[19.4.0.0*3,8*]pentacosa-1(25),3,5,7,21,23-hexaene-11,14,17-trione] | 11.6
CN1C(=O)[C@H](CCCCN)NC(=O)[C@H](CCCN)NCc2cccnc2Sc2c(Cl)ccc(-c3cccc(CCN)c3)c2CNC(=O)[C@@H]1Cc1c[nH]c2ccccc12 [Example 54, (11S,14S,17S)-14-(4-Amino-butyl)-22-[3-(2-amino-ethyl)-phenyl]-11-(3-amino-propyl)-25-chloro-17-(1H-indol-3-ylmethyl)-16-methyl-2-thia-4,10,13,16,19-pentaaza-tricyclo[19.4.0.0*3,8*]pentacosa-1(25),3(8),4,6,21,23-hexaene-12,15,18-trione] | 29.1
